Test: xn = mol fraction of the nth substance listed
Conditions: 101 kPa

CC[N+](CC)(CC)CC.[Cl-] + CC(=O)CCC(=O)O
x1 = 0.25
Conditions	electrical conductivity [S/m]	viscosity [mPa·s]
293.15 K	0.075	130.1
298.15 K	0.105	–
303.15 K	0.138	69.8
308.15 K	0.172	–
313.15 K	0.215	39.1
318.15 K	0.265	–
323.15 K	0.318	27.1
328.15 K	0.373	–
333.15 K	0.453	18.71
338.15 K	0.524	–
343.15 K	0.587	–

CC(=O)CCC(=O)O + CCCC[N+](CCCC)(CCCC)CCCC.[Cl-]
x1 = 0.75
Conditions	electrical conductivity [S/m]	viscosity [mPa·s]
293.15 K	0.035	121.7
298.15 K	0.045	–
303.15 K	0.06	65.6
308.15 K	0.072	–
313.15 K	0.089	36.7
318.15 K	0.113	–
323.15 K	0.129	25.5
328.15 K	0.151	–
338.15 K	0.213	–

From a compilation of properties of binary mixtures (doi:10.1016/j.molliq.2016.07.039)
